# According to PubChem BioAssay AID192 (DTP/NCI, 2004):
# Values joined by “and” are separate entries in the source; they are usually repeats but may differ in a detail not shown here. Equal values may be shown once. Toxic doses and inconclusive results are not listed.
# System: BDF1 mice, B16 melanoma ip, median survival T/C
# Test: NCI In Vivo Anticancer Drug Screen. Data for tumor model B16 Melanoma (intraperitoneal) in B6D2F1 (BDF1) mice
# Details: endpoint: median survival time, higher = longer survival
# Procedure, shortened: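 Vehicle-treated animals serve as the reference (C); treated animals (T) are scored for survival or tumor size after tumor transplantation.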
# [1] = dose: 50.0 mg/kg/injection, schedule: Q01DX009 (ip), vehicle: Klucel (hydroxypropylcellulose) (HPC)
# [2] = dose: 100.0 mg/kg/injection, schedule: Q01DX009 (ip), vehicle: Klucel (hydroxypropylcellulose) (HPC)
# [3] = dose: 200.0 mg/kg/injection, schedule: Q01DX009 (ip), vehicle: Klucel (hydroxypropylcellulose) (HPC)
# [4] = dose: 400.0 mg/kg/injection, schedule: Q01DX009 (ip), vehicle: Klucel (hydroxypropylcellulose) (HPC)
# [5] = dose: 100.0 mg/kg/injection, schedule: Q04DX003 (ip), vehicle: Klucel (hydroxypropylcellulose) (HPC)
# [6] = dose: 200.0 mg/kg/injection, schedule: Q04DX003 (ip), vehicle: Klucel (hydroxypropylcellulose) (HPC)
# [7] = dose: 50.0 mg/kg/injection, schedule: Q01DX009 (ip), vehicle: saline with Tween-80
# [8] = dose: 100.0 mg/kg/injection, schedule: Q01DX009 (ip), vehicle: saline with Tween-80
# [9] = dose: 200.0 mg/kg/injection, schedule: Q01DX009 (ip), vehicle: saline with Tween-80
# [10] = dose: 400.0 mg/kg/injection, schedule: Q04DX003 (ip), vehicle: Klucel (hydroxypropylcellulose) (HPC)
# [11] = dose: 100.0 mg/kg/injection, schedule: Q04DX003 (ip), vehicle: saline with Tween-80
# [12] = dose: 25.0 mg/kg/injection, schedule: Q01DX009 (ip), vehicle: saline with Tween-80
# [13] = dose: 12.5 mg/kg/injection, schedule: Q01DX009 (ip), vehicle: saline with Tween-80
structure (smiles),measurement,setting,value
CN1C(=O)CCS(=O)(=O)C1c1ccc(Cl)c(Cl)c1 (stereo not drawn),T/C,"dose: 0.39 mg/kg/injection, schedule: Q01DX009 (ip), vehicle: Klucel (hydroxypropylcellulose) (HPC)",103 % of control
same,T/C,"dose: 0.78 mg/kg/injection, schedule: Q01DX009 (ip), vehicle: Klucel (hydroxypropylcellulose) (HPC)",87 % of control
same,T/C,"dose: 1.56 mg/kg/injection, schedule: Q01DX009 (ip), vehicle: Klucel (hydroxypropylcellulose) (HPC)",109 % of control and 116 % of control
same,T/C,"dose: 3.12 mg/kg/injection, schedule: Q01DX009 (ip), vehicle: Klucel (hydroxypropylcellulose) (HPC)",111 % of control and 118 % of control
same,T/C,"dose: 6.25 mg/kg/injection, schedule: Q01DX009 (ip), vehicle: Klucel (hydroxypropylcellulose) (HPC)",103 % of control and 111 % of control
same,T/C,"dose: 12.5 mg/kg/injection, schedule: Q01DX009 (ip), vehicle: Klucel (hydroxypropylcellulose) (HPC)",97 % of control
same,T/C,[1],90 % of control
O=C1NC2(CCCCC2)NC12CCCCC2,T/C,"dose: 25.0 mg/kg/injection, schedule: Q01DX009 (ip), vehicle: saline",102 % of control
same,T/C,"dose: 50.0 mg/kg/injection, schedule: Q01DX009 (ip), vehicle: saline",97 % of control
same,T/C,"dose: 100.0 mg/kg/injection, schedule: Q01DX009 (ip), vehicle: saline",97 % of control
same,T/C,"dose: 150.0 mg/kg/injection, schedule: Q01DX009 (ip), vehicle: saline",94 % of control
same,T/C,"dose: 225.0 mg/kg/injection, schedule: Q01DX009 (ip), vehicle: saline",86 % of control
O=C1C=CC(=O)C2=C1C1c3ccccc3C2([N+](=O)[O-])c2ccccc21,T/C,[2],97 % of control
same,T/C,[3],97 % of control
same,T/C,[4],100 % of control
O=C(Cl)C1CC2c3ccccc3C1([N+](=O)[O-])c1ccccc12 (stereo not drawn),T/C,"dose: 50.0 mg/kg/injection, schedule: Q04DX003 (ip), vehicle: Klucel (hydroxypropylcellulose) (HPC)",94 % of control
same,T/C,[5],100 % of control
same,T/C,[6],102 % of control
O=C(N=C1C=CC(=NC(=O)OCc2ccccc2)C=C1)OCc1ccccc1,T/C,"dose: 75.0 mg/kg/injection, schedule: Q01DX009 (ip), vehicle: Klucel (hydroxypropylcellulose) (HPC)",98 % of control
same,T/C,"dose: 150.0 mg/kg/injection, schedule: Q01DX009 (ip), vehicle: Klucel (hydroxypropylcellulose) (HPC)",92 % of control
same,T/C,"dose: 300.0 mg/kg/injection, schedule: Q01DX009 (ip), vehicle: Klucel (hydroxypropylcellulose) (HPC)",91 % of control
CC(C)C(NC=O)C(=O)O (stereo not drawn),T/C,[7],101 % of control
same,T/C,[8],97 % of control
same,T/C,[9],92 % of control
O=C(CCCC(=O)N1CCOCC1)N1CCOCC1,T/C,[5],97 % of control
same,T/C,[6],95 % of control
same,T/C,[10],92 % of control
COC(=O)C1(C(=O)OC)CC1CCl (stereo not drawn),T/C,[11],90 % of control
same,T/C,"dose: 200.0 mg/kg/injection, schedule: Q04DX003 (ip), vehicle: saline with Tween-80",96 % of control
Cc1cc2nc3[nH]c4ccccc4c3nc2cc1C,T/C,[12],97 % of control
same,T/C,[7],97 % of control
same,T/C,[9],86 % of control
CCCCC(=O)NN,T/C,[13],102 % of control
same,T/C,[12],96 % of control
same,T/C,[7],100 % of control
C/C(=N/NC(=O)c1ccccc1)c1ccccc1O,T/C,"dose: 100.0 mg/kg/injection, schedule: Q04DX003 (ip), vehicle: gum acacia",93 % of control
same,T/C,"dose: 200.0 mg/kg/injection, schedule: Q04DX003 (ip), vehicle: gum acacia",95 % of control
same,T/C,"dose: 400.0 mg/kg/injection, schedule: Q04DX003 (ip), vehicle: gum acacia",93 % of control
COc1ccc(NC(=O)Nc2ccc(Br)cc2)cc1,T/C,[12],98 % of control
same,T/C,[7],92 % of control
same,T/C,[8],89 % of control and 95 % of control
NC(=O)Oc1ccc(Cc2ccccc2)cc1,T/C,[5],95 % of control
same,T/C,[6],91 % of control
same,T/C,[10],97 % of control
C/C=C/c1cc2n(c1)C(=O)c1cc(OC3OC(C)C(NC)C(C)(O)C3O)c(C)c(O)c1NC2O (stereo not drawn),T/C,"dose: 0.02 mg/kg/injection, schedule: Q04DX003 (ip), vehicle: DMSO",168 % of control
same,T/C,"dose: 0.5 micrograms/kg/injection, schedule: Q04DX003 (ip), vehicle: saline",184 % of control
same,T/C,"dose: 1.0 micrograms/kg/injection, schedule: Q04DX003 (ip), vehicle: saline",184 % of control
same,T/C,"dose: 2.0 micrograms/kg/injection, schedule: Q04DX003 (ip), vehicle: saline",197 % of control
same,T/C,"dose: 16.0 micrograms/kg/injection, schedule: Q04DX003 (ip), vehicle: saline",151 % of control
N#CC1CS(=O)(=O)C1,T/C,"dose: 25.0 mg/kg/injection, schedule: Q04DX003 (ip), vehicle: saline with Tween-80",104 % of control
same,T/C,"dose: 50.0 mg/kg/injection, schedule: Q04DX003 (ip), vehicle: saline with Tween-80",98 % of control
same,T/C,[11],99 % of control and 113 % of control
CCCCCCCCCC(O)CCC (stereo not drawn),T/C,"dose: 25.0 mg/kg/injection, schedule: Q01DX009 (ip), vehicle: Klucel (hydroxypropylcellulose) (HPC)",103 % of control
same,T/C,[1],99 % of control
same,T/C,[2],92 % of control
Cc1ccc(NS(=O)(=O)c2ccccc2)cc1Cl,T/C,[3],90 % of control
same,T/C,[4],88 % of control
Cc1ccc(C)c(C(O)C2CC2)c1 (stereo not drawn),T/C,[7],104 % of control
same,T/C,[8],100 % of control
CCOC(=O)Nc1nccs1,T/C,[12],97 % of control
same,T/C,[7],89 % of control
same,T/C,[8],89 % of control
same,T/C,[9],89 % of control
CCS(=O)(=O)Nc1cccc(Nc2c3cccc(C)c3nc3c(C)cccc23)c1OC,T/C,"dose: 6.25 mg/kg/injection, schedule: Q01DX009 (ip), vehicle: saline with Tween-80",185 % of control
same,T/C,[13],203 % of control
same,T/C,[12],87 % of control
C=C(C)C(=O)O[C@H]1CC2=C[C@@H](C[C@@]3(C)O[C@@H]3[C@H]3OC(=O)C(=C)[C@@H]31)OC2=O,T/C,"dose: 3.75 mg/kg/injection, schedule: Q01DX009 (ip), vehicle: Klucel (hydroxypropylcellulose) (HPC)",89 % of control
same,T/C,"dose: 7.5 mg/kg/injection, schedule: Q01DX009 (ip), vehicle: Klucel (hydroxypropylcellulose) (HPC)",97 % of control
same,T/C,"dose: 15.0 mg/kg/injection, schedule: Q01DX009 (ip), vehicle: Klucel (hydroxypropylcellulose) (HPC)",92 % of control
CC1CC(C)CC(C)C(O)/C(C#N)=C/C=C/CC(C2CCCC2C(=O)O)OC(=O)CC(O)C(C)C1 (stereo not drawn),T/C,"dose: 0.12 mg/kg/injection, schedule: Q01DX009 (ip), vehicle: Klucel (hydroxypropylcellulose) (HPC)",111 % of control
same,T/C,"dose: 0.12 mg/kg/injection, schedule: Q01DX009 (ip), vehicle: saline with Tween-80",119 % of control
same,T/C,"dose: 0.25 mg/kg/injection, schedule: Q01DX009 (ip), vehicle: Klucel (hydroxypropylcellulose) (HPC)",108 % of control
same,T/C,"dose: 0.25 mg/kg/injection, schedule: Q01DX009 (ip), vehicle: saline with Tween-80",113 % of control
same,T/C,"dose: 0.5 mg/kg/injection, schedule: Q01DX009 (ip), vehicle: Klucel (hydroxypropylcellulose) (HPC)",110 % of control
same,T/C,"dose: 1.0 mg/kg/injection, schedule: Q01DX009 (ip), vehicle: Klucel (hydroxypropylcellulose) (HPC)",107 % of control
same,T/C,"dose: 2.0 mg/kg/injection, schedule: Q01DX009 (ip), vehicle: Klucel (hydroxypropylcellulose) (HPC)",105 % of control
same,T/C,"dose: 4.0 mg/kg/injection, schedule: Q01DX009 (ip), vehicle: Klucel (hydroxypropylcellulose) (HPC)",98 % of control
COc1ccc2c(c1)c(C#N)cc[n+]2C,T/C,"dose: 3.13 mg/kg/injection, schedule: Q01DX009 (ip), vehicle: saline",102 % of control
same,T/C,"dose: 6.25 mg/kg/injection, schedule: Q01DX009 (ip), vehicle: saline",100 % of control
CC[n+]1c(C)sc2cc3c(cc21)OCO3,T/C,"dose: 25.0 mg/kg/injection, schedule: Q01DX009 (ip), vehicle: carboxymethylcellulose (CMC)",108 % of control
same,T/C,"dose: 50.0 mg/kg/injection, schedule: Q01DX009 (ip), vehicle: carboxymethylcellulose (CMC)",106 % of control
Nc1nc([Se])c2ncn(C3OC(CO)C(O)C3O)c2n1 (stereo not drawn),T/C,"dose: 1.0 mg/kg/injection, schedule: Q01DX009 (ip), vehicle: saline",114 % of control
same,T/C,"dose: 2.0 mg/kg/injection, schedule: Q01DX009 (ip), vehicle: saline",116 % of control and 117 % of control
same,T/C,"dose: 4.0 mg/kg/injection, schedule: Q01DX009 (ip), vehicle: saline",114 % of control
same,T/C,"dose: 8.0 mg/kg/injection, schedule: Q01DX009 (ip), vehicle: saline",116 % of control and 117 % of control
same,T/C,"dose: 16.0 mg/kg/injection, schedule: Q01DX009 (ip), vehicle: saline",121 % of control
O=C1CC(NC(=O)OCc2ccccc2)C(=O)O1 (stereo not drawn),T/C,"dose: 100.0 mg/kg/injection, schedule: Q01DX009 (ip), vehicle: alcohol",111 % of control
same,T/C,"dose: 200.0 mg/kg/injection, schedule: Q01DX009 (ip), vehicle: alcohol",94 % of control
